# Laboratory results: paper PMC8162437, “Copper-mediated peptide arylation selective for the N-terminus” (Chemical Science, 2020)
# Starred links: 1 amine or outer side, 2 acyl side, 3 side chain; linkers in the order of their positions; H or OH if unused. Non-standard residues stand in square brackets, D forms with d. Residues, ends and D or L forms follow the SMILES beside them. X1 = CNS(=O)(=O)c1ccccc1N([C@H](C(=O)[*:2])C(C)C)[*:1]
# Test system: Pfu aminopeptidase I
# Conditions: 100 μM 5, 40 μM 5a, 0.08 μg mL−1 aminopeptidase I, 20 μM Co(OAc)2, NaOAc buffer 5 mM, pH 6.0, 95 °C, quenched with EDTA, RP-HPLC at 220 and 310 nm, internal standard 19, starting material peak area compared with 0 h
# Description: (b) RP-HPLC analysis of the enzymatic degradation of angiotensin IV (5) and arylated angiotensin IV (5a) with aminopeptidase I. Conditions: 100 μM 5, 40 μM 5a, 0.08 μg mL^−1 aminopeptidase I, and 20 μM Co(OAc)2 in NaOAc buffer (5 mM, pH = 6.0) at 95 °C. Internal standard 19 for quantification. (c) Peptidase activity: time course for aminopeptidease I cleavage of arylated angiotensin IV (5a, orange) and angiotensin IV (5, blue).
# We decided to investigate whether the charge and structural perturbation afforded by the N-arylation engendered peptide stability towards enzymatic degradation.
# Enzymatic Degradation with Aminopeptidase I
# Stability Test of Peptides to Aminopeptidase I
# 1.7 mM in 20% aq. MeCN) and Co(OAc)2 (50 µL, 200 µM in H2O) in NaOAc buffer (338 µL, 5 mM,
# pH = 6.0) was added aminopeptidase I (75 µL, 0.5 mg/mL in Tris buffer (50 mM, pH = 6.0). A 50 -
# µL aliquot was immediately removed after addition of the enzyme and was quenched with EDTA
# (5 µL, 1 M in H2O). Internal standard 2-amino-N,N’-dimethylbenzenesulfonamide 19 was added
# (1.5 μL, 4 mM in DMSO) and the 0 h timepoint was analyzed by RP-HPLC (20-60% MeCN over
# 28 min) at 220 nm and 310 nm. The reaction mixture was then heated to 95 °C and 50-µL aliquots
# were removed and quenched with EDTA (5 µL, 1 M in H2O) at 10 min, 30 min, 1 h, and 2 h. After
# quenching, the internal standard 19 was added (1.5 μL, 4 mM in DMSO) and analyzed by RP- […]
SMILES,"Stability towards enzymatic degradation by aminopeptidase I, after 10 minutes (10 min)","Stability towards enzymatic degradation by aminopeptidase I, after 2 h incubation (2 h)"
"CC[C@H](C)[C@H](NC(=O)[C@H](Cc1ccc(O)cc1)NC(=O)[C@@H](N)C(C)C)C(=O)N[C@@H](Cc1cnc[nH]1)C(=O)N1CCC[C@H]1C(=O)N[C@@H](Cc1ccccc1)C(=O)O [compound 5, Angiotensin IV]",completely consumed,
CC[C@H](C)[C@H](NC(=O)[C@H](Cc1ccc(O)cc1)NC(=O)[C@@H](Nc1ccccc1S(=O)(=O)NC)C(C)C)C(=O)N[C@@H](Cc1c[nH]cn1)C(=O)N1CCC[C@H]1C(=O)N[C@@H](Cc1ccccc1)C(=O)O [5a] (H-[X1]YIHPF-OH),,remained stable
